These results are taken from paper PMC7758879, “Tyramine Acts Downstream of Neuronal XBP-1s to Coordinate Inter-tissue UPR^ER Activation and Behavior in C. elegans” (Developmental Cell, 2020).

The test deals with T1, OCTR-1 (Caenorhabditis elegans, UniProt Q7JP62).
T1 construct: cDNA in KSM vector, cRNA injected into Xenopus laevis oocytes; co-expressed with mouse GIRK1/GIRK2 as reporter
T1 sequence (Q7JP62 1-406): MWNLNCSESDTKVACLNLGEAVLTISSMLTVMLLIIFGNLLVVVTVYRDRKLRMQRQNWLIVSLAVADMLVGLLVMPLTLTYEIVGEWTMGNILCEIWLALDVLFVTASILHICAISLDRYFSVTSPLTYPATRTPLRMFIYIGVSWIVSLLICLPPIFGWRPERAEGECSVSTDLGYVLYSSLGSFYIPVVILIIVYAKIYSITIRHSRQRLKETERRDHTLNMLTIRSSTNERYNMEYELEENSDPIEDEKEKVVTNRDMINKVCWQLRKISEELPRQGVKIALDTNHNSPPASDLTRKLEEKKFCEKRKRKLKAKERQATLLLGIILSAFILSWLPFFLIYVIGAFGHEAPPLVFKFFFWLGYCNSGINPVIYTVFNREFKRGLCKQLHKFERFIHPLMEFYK
In words: two-electrode voltage clamp, GIRK1/[…] current, Xenopus oocytes. The test is classed as cell-based.

Broadly, the EC50 is the midpoint of the concentration-response curve. Low readings indicate greater potency, high ones weaker potency.

Take `NC[C@H](O)c1ccc(O)cc1` [Oct, octopamine]: the EC50 is 0.114 µM.
In the case of `NCCc1ccc(O)cc1` [Tyr, tyramine], the EC50 is 12.9 µM.
